Experimental data from the NIST ThermoML archive (doi:10.1016/j.jct.2011.11.019).

Assay: xn = mol fraction of the nth substance listed
Conditions: 298.15 K, 101 kPa, Liquid, Vibrating tube method

OC(C(F)(F)F)C(F)(F)F [1,1,1,3,3,3-hexafluoro-2-propanol] + O
Conditions	mass density [kg/m3]
x1 = 0.1024	1261.96
x1 = 0.205	1387.36
x1 = 0.3016	1455.74
x1 = 0.4067	1501.77
x1 = 0.4929	1527.75
x1 = 0.5943	1550.19
x1 = 0.6411	1558.59
x1 = 0.8065	1585.8
x1 = 0.9005	1593.04
